Measurements as given in ChEMBL document CHEMBL4251628, “Novel click modifiable thioquinazolinones as anti-inflammatory agents: Design, synthesis, biological evaluation and docking study” (Eur J Med Chem, 2018).
pIC50: −log10 of the molar value.

Columns and labels:
[1] = biological target: T1, Prostaglandin G/H synthase 1 (Ovis aries, UniProt P05979); assay: Inhibition of ovine COX1 assessed as reduction in PGF2alpha production using arachidonic acid as substrate by colorimetric method
T1 sequence (P05979 whole entry): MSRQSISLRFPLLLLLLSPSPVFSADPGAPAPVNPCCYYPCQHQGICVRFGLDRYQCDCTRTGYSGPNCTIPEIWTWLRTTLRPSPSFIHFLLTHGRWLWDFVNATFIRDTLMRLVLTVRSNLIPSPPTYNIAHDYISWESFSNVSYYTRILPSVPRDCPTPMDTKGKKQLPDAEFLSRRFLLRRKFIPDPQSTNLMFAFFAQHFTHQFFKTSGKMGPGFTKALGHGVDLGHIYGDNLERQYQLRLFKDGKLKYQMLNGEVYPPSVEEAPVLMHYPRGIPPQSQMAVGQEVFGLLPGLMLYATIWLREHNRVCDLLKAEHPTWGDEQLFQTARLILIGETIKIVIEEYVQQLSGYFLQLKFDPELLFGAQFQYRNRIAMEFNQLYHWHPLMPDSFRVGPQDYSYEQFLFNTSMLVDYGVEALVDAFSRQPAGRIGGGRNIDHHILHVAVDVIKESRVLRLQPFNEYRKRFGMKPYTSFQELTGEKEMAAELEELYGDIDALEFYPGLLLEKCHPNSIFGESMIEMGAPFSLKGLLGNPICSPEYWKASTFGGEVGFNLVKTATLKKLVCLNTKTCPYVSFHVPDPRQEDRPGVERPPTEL

[2] = tested on: Rattus norvegicus; assay: Anti-inflammatory activity in rat acute inflammation model assessed as inhibition of formalin-induced paw edema at 5 mg/kg, po measured after 4 hrs relative to negative control
[3] = tested on: Rattus norvegicus; assay: Ulcerogenicity in Wistar rat assessed as hyperemia in gastric mucosa at 60 mg/kg, po after 6 hrs; assay type: toxicity, organism-based; details: in vivo
[4] = tested on: Rattus norvegicus; assay: Anti-inflammatory activity in rat acute inflammation model assessed as inhibition of formalin-induced paw edema at 5 mg/kg, po measured after 4 hrs relative to control; assay type: functional
[5] = tested on: THP-1; assay: Inhibition of PMA-induced human THP1 monocytes differentiation in to macrophages preincubated for 6 hrs followed by PMA stimulation by phase contrast microscopic method; assay type: functional, cell-based
[6] = tested on: THP-1; assay: Cytotoxicity against human THP1 cells assessed as reduction in cell viability after 30 hrs by MTS assay; assay type: cell-based; details: thp-1, 30 h
[7] = Inhibition of soybean 15-LOX using linoleic acid as substrate by colorimetric method; design: species or system Glycine max
[8] = tested on: Rattus norvegicus; assay: Anti-inflammatory activity in rat acute inflammation model assessed as inhibition of formalin-induced paw edema at 5 mg/kg, po measured after 4 hrs relative to celecoxib; assay type: functional
[9] = tested on: Rattus norvegicus; assay: Ulcerogenicity in Wistar rat assessed as lymphocytic infilteration in gastric mucosa po after 6 hrs by H and E staining based light microscopic method; details: in vivo
[10] = tested on: Rattus norvegicus; assay: Ulcerogenicity in Wistar rat assessed as effect on gastro-esophageal junction at 60 mg/kg, po after 6 hrs by H and E staining based light microscopic method; assay type: toxicity, organism-based; details: in vivo
[11] = tested on: Rattus norvegicus; assay: Ulcerogenicity in Wistar rat assessed as maceration of gastric mucosa at 60 mg/kg, po after 6 hrs by H and E staining based light microscopic method; assay type: toxicity, organism-based; details: in vivo
[12] = tested on: Rattus norvegicus; assay: Ulcerogenicity in Wistar rat assessed as necrosis of gastric mucosa at 60 mg/kg, po after 6 hrs by H and E staining based light microscopic method; assay type: toxicity, organism-based; details: in vivo
[13] = tested on: Rattus norvegicus; assay: Ulcerogenicity in Wistar rat assessed as congested blood vessels in gastric mucosa esophagus at 60 mg/kg, po after 6 hrs by H and E staining based light microscopic method; assay type: toxicity, organism-based; details: in vivo
[14] = biological target: T2, Serine/threonine-protein kinase Chk1 (Homo sapiens, UniProt O14757); assay: Inhibition of CHK1 (unknown origin)
T2 sequence (O14757 whole entry): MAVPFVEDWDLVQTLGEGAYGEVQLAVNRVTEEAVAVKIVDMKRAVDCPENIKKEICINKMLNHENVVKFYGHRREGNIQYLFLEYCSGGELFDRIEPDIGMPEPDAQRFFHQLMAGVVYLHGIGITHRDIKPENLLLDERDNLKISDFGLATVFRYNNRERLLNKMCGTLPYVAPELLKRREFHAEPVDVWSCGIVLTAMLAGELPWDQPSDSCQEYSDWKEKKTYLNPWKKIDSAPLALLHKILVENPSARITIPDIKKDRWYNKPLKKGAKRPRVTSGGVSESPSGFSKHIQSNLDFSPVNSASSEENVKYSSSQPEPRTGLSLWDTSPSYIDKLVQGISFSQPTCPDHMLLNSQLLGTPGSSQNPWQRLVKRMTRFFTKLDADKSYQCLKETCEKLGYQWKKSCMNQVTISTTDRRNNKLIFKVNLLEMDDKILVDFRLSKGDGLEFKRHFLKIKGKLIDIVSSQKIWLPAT

Structure (SMILES): O=C(O)c1ccc(-n2cc(CSc3nc4ccccc4c(=O)n3-c3ccccc3)nn2)cc1
- pIC50 [1]: 5.23

Structure (SMILES): O=c1c2ccccc2nc(SCc2cn(-c3ccc(Br)cc3)nn2)n1-c1ccc(Br)cc1
- inhibition in vivo at 5 mg/kg [2]: 50%
- Activity [3]: Toxic
- inhibition in vivo at 5 mg/kg [4]: 41.7%
- pIC50 [5]: 4.00
- Activity [6]: Non-Toxic
- pIC50 [1]: 5.41
- pIC50 [7]: 5.40
- inhibition in vivo at 5 mg/kg [8]: 133%
- Activity [9]: Toxic

Structure (SMILES): COc1ccc(-n2c(SCc3cc(-c4ccc(OC)c(OC)c4)no3)nc3ccccc3c2=O)cc1
- pIC50 [1]: 5.19

Structure (SMILES): Cc1ccc(-c2cc(C(F)(F)F)nn2-c2ccc(S(N)(=O)=O)cc2)cc1 [CELECOXIB]
- inhibition in vivo at 5 mg/kg [4]: 33.3%
- Activity [10]: Non-Toxic

Structure (SMILES): COc1ccc(-c2cc(CSc3nc4ccccc4c(=O)n3-c3ccc(OC)cc3)on2)cc1
- pIC50 [1]: 5.21

Structure (SMILES): COc1ccc(-c2cc(CSc3nc4ccccc4c(=O)n3-c3ccc(Br)cc3)on2)cc1
- inhibition in vivo at 5 mg/kg [2]: 50%
- inhibition in vivo at 5 mg/kg [4]: 61.1%
- pIC50 [1]: 5.27
- inhibition in vivo at 5 mg/kg [8]: 192%

Structure (SMILES): C#CCSc1nc2ccccc2c(=O)n1-c1ccc(Br)cc1
- inhibition in vivo at 5 mg/kg [2]: 50%
- Activity [3]: Non-Toxic
- inhibition in vivo at 5 mg/kg [4]: 70.8%
- pIC50 [5]: 5.32
- Activity [6]: Non-Toxic
- pIC50 [1]: 5.41
- Activity [10]: Non-Toxic
- pIC50 [7]: 5.21
- inhibition in vivo at 5 mg/kg [8]: 225%

Structure (SMILES): O=C(O)c1ccc(-n2cc(CSc3nc4ccccc4c(=O)n3-c3ccc(Cl)cc3)nn2)cc1
- inhibition in vivo at 5 mg/kg [2]: 50%
- Activity [3]: Toxic
- inhibition in vivo at 5 mg/kg [4]: 70.8%
- pIC50 [5]: 6.89
- Activity [6]: Non-Toxic
- pIC50 [1]: 5.53
- Activity [11]: Non-Toxic
- pIC50 [7]: 5.12
- Activity [12]: Non-Toxic
- inhibition in vivo at 5 mg/kg [8]: 225%
- Activity [9]: Non-Toxic
- Activity [13]: Toxic

Structure (SMILES): CCCC[C@@H](Sc1nc2ccccc2c(=O)n1-c1cccc(C)c1)C(=O)N1CCC[C@]2(CCCNC2)C1
- pIC50 [14]: 5.89

Structure (SMILES): O=c1c2ccccc2nc(SCc2cc(-c3ccc(Cl)cc3)no2)n1-c1ccc(Cl)cc1
- pIC50 [1]: 5.25

Structure (SMILES): COc1ccc(-n2c(SCc3cn(-c4ccccc4)nn3)nc3ccccc3c2=O)cc1
- pIC50 [1]: 4.98

Structure (SMILES): COc1ccc(-n2c(SCc3cn(-c4ccc(C(=O)O)cc4)nn3)nc3ccccc3c2=O)cc1
- pIC50 [1]: 4.93

Structure (SMILES): COc1ccc(-c2cc(CSc3nc4ccccc4c(=O)n3-c3ccc(Cl)cc3)on2)cc1OC
- pIC50 [1]: 4.99

Structure (SMILES): O=c1c2ccccc2nc(SCc2cc(-c3ccc(Cl)cc3)no2)n1-c1ccccc1
- pIC50 [1]: 5.06

Structure (SMILES): C#CCSc1nc2ccccc2c(=O)n1-c1ccc(OC)cc1
- pIC50 [1]: 5.18

Structure (SMILES): O=c1c2ccccc2nc(SCc2cn(-c3ccccc3)nn2)n1-c1ccccc1
- pIC50 [1]: 5.13

Structure (SMILES): Cc1ccc(Cl)c(Nc2ccccc2C(=O)O)c1Cl [MECLOFENAMATE SODIUM]
- pIC50 [7]: 5.25

Structure (SMILES): O=C(O)c1ccc(-n2cc(CSc3nc4ccccc4c(=O)n3-c3ccc(Br)cc3)nn2)cc1
- pIC50 [1]: 5.06

Structure (SMILES): COc1ccc(-c2cc(CSc3nc4ccccc4c(=O)n3-c3ccc(Br)cc3)on2)cc1OC
- inhibition in vivo at 5 mg/kg [2]: 50%
- inhibition in vivo at 5 mg/kg [4]: 51.4%
- pIC50 [1]: 5.34
- inhibition in vivo at 5 mg/kg [8]: 167%

Structure (SMILES): C#CCSc1nc2ccccc2c(=O)n1-c1ccc(Cl)cc1
- pIC50 [1]: 5.37

Structure (SMILES): O=c1c2ccccc2nc(SCc2cn(-c3ccccc3)nn2)n1-c1ccc(Br)cc1
- pIC50 [1]: 5.32

Structure (SMILES): O=c1c2ccccc2nc(SCc2cc(-c3ccc(Cl)cc3)no2)n1-c1ccc(Br)cc1
- pIC50 [1]: 5.04

Structure (SMILES): C#CCSc1nc2ccccc2c(=O)n1-c1ccccc1
- pIC50 [1]: 5.42

Structure (SMILES): COc1ccc(-n2c(SCc3cc(-c4ccc(Cl)cc4)no3)nc3ccccc3c2=O)cc1
- pIC50 [1]: 5.11

Structure (SMILES): COc1ccc(-n2c(SCc3cn(-c4ccc(Cl)cc4)nn3)nc3ccccc3c2=O)cc1
- pIC50 [1]: 5.37

Structure (SMILES): CC(c1cc2ccccc2s1)N(O)C(N)=O (stereo unspecified) [ZILEUTON]
- pIC50 [7]: 5.62

Structure (SMILES): COc1ccc(-c2cc(CSc3nc4ccccc4c(=O)n3-c3ccc(Cl)cc3)on2)cc1
- pIC50 [1]: 4.95

Structure (SMILES): O=c1c2ccccc2nc(SCc2cn(-c3ccc(Br)cc3)nn2)n1-c1ccc(Cl)cc1
- pIC50 [1]: 5.44

Structure (SMILES): O=c1c2ccccc2nc(SCc2cn(-c3ccc(Cl)cc3)nn2)n1-c1ccc(Cl)cc1
- pIC50 [1]: 5.20

Structure (SMILES): O=c1c2ccccc2nc(SCc2cn(-c3ccccc3)nn2)n1-c1ccc(Cl)cc1
- pIC50 [1]: 5.08

Structure (SMILES): COc1ccc(-c2cc(CSc3nc4ccccc4c(=O)n3-c3ccccc3)on2)cc1
- inhibition in vivo at 5 mg/kg [2]: 50%
- inhibition in vivo at 5 mg/kg [4]: 61.1%
- pIC50 [1]: 5.33
- inhibition in vivo at 5 mg/kg [8]: 192%

Structure (SMILES): O=C(O)Cc1ccccc1Nc1c(Cl)cccc1Cl [DICLOFENAC]
- inhibition in vivo at 5 mg/kg [4]: 66.7%
- pIC50 [5]: 5.31
- Activity [6]: Non-Toxic
- inhibition in vivo at 5 mg/kg [8]: 208%

Structure (SMILES): O=c1c2ccccc2nc(SCc2cn(-c3ccc(Cl)cc3)nn2)n1-c1ccccc1
- inhibition in vivo at 5 mg/kg [2]: 50%
- Activity [3]: Non-Toxic
- inhibition in vivo at 5 mg/kg [4]: 70.8%
- pIC50 [5]: 5.91
- Activity [6]: Non-Toxic
- pIC50 [1]: 5.36
- Activity [10]: Non-Toxic
- pIC50 [7]: 5.36
- inhibition in vivo at 5 mg/kg [8]: 225%

Structure (SMILES): O=c1c2ccccc2nc(SCc2cn(-c3ccc(Cl)cc3)nn2)n1-c1ccc(Br)cc1
- inhibition in vivo at 5 mg/kg [2]: 50%
- Activity [3]: Toxic
- inhibition in vivo at 5 mg/kg [4]: 70.8%
- pIC50 [5]: 5.25
- Activity [6]: Non-Toxic
- pIC50 [1]: 5.28
- Activity [11]: Non-Toxic
- pIC50 [7]: 5.28
- Activity [12]: Non-Toxic
- inhibition in vivo at 5 mg/kg [8]: 225%
- Activity [9]: Non-Toxic
- Activity [13]: Toxic

Structure (SMILES): O=c1c2ccccc2nc(SCc2cn(-c3ccc(Br)cc3)nn2)n1-c1ccccc1
- pIC50 [1]: 5.23

Structure (SMILES): COc1ccc(-n2c(SCc3cn(-c4ccc(Br)cc4)nn3)nc3ccccc3c2=O)cc1
- pIC50 [1]: 5.12

Structure (SMILES): COc1ccc(-c2cc(CSc3nc4ccccc4c(=O)n3-c3ccccc3)on2)cc1OC
- pIC50 [1]: 5.03
